“And” between values parts separate entries of the source, which are not always exact repeats. Identical values can stand only once. Like-named read-outs stand apart in the source and are kept apart here.
Key:
[1] = target: T1, 5-LOX (Homo sapiens, UniProt P09917); experiment: 5-LOX fluorescent assay (in vitro lipoxygenase inhibition); type: biochemical
T1 sequence (P09917 1-674): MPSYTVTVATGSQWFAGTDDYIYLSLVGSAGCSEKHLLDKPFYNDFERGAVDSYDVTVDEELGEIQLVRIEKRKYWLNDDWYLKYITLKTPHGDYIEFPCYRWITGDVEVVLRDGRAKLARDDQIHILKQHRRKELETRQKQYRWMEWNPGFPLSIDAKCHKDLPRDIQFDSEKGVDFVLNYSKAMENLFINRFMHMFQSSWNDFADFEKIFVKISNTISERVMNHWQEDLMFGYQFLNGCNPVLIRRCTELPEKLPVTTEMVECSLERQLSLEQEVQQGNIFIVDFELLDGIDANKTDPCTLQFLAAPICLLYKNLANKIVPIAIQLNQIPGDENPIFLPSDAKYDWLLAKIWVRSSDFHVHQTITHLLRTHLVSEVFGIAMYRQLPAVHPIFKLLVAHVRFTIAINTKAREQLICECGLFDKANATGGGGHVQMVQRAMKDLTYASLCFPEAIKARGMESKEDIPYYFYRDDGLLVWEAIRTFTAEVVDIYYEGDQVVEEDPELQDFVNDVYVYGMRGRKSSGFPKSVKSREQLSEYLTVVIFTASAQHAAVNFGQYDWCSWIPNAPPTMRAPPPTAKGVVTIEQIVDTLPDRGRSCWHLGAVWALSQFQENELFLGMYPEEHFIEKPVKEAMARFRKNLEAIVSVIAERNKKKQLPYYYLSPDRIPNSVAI
Procedure: 5-LOX FI assay Fluorescent Assay
The enzyme assay (100 μL) contained 50 mM Tris, pH 7.5, 0.1 mM EDTA, 0.3 mM CaCl2, 20 μM AA, 100 μM ATP, 1 μM DHR123, and recombinant 5-LOX cell lysate (0.5 μL/100 μL). Inhibitors (dissolved in DMSO) were plated at 1 μL into 96-well assay microplates followed by a 40 μL addition of a solution containing 5-LOX enzyme. Enzyme was pre-incubated with compounds for 15 mins. The assay was initiated by the addition of a 40 μL substrate solution containing AA and ATP, and 20 μL addition of a solution containing DHR123. […] Percent inhibition was calculated for each compound dose for IC50 curve fitting using 4 Parameter Logistic Model or Sigmoidal Dose-Response Model.

[2] = target: T2, 12-LOX (Homo sapiens, UniProt P18054); experiment: 12-LOX fluorescent assay (in vitro lipoxygenase inhibition); type: biochemical
T2 sequence (P18054 1-663): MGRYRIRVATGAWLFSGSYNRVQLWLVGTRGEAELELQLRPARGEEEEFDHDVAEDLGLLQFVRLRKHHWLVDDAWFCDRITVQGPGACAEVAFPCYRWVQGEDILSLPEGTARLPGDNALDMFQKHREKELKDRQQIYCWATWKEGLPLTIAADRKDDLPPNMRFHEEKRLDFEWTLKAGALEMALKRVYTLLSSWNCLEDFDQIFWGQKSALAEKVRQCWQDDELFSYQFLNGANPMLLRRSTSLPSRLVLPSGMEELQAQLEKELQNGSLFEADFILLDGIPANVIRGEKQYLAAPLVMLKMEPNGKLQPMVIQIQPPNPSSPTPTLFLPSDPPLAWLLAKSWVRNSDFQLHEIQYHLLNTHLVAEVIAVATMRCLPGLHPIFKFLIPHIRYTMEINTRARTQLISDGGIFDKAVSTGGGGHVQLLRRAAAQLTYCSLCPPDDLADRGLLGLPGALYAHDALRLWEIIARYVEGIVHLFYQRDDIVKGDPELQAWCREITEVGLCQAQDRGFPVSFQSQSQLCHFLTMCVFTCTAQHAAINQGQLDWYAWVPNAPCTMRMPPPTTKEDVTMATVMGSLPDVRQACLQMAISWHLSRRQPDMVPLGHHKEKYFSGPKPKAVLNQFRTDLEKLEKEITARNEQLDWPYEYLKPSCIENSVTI
Procedure: 12-LOX/15-LOX Fluorescent Assay
The enzyme assay (100 ul) contained 50 mM Tris, pH 7.5, 0.05% Tween-20, 20 μM AA/LA, 1 μM DHR123, and 100 nM recombinant 12-LOX enzyme/50 nM recombinant 15-LOX enzyme. Inhibitors (dissolved in DMSO) were plated at 1 μL into 96-well assay microplates followed by a 40 μL addition of a solution containing 12-LOX/15-LOX enzyme. Enzyme was pre-incubated with compounds for 15 mins. The assay was initiated by the addition of a 40 μL substrate solution containing AA/LA, and 20μL addition of a solution containing DHR123. […] Percent inhibition was calculated for each compound dose for IC50 curve fitting using 4 Parameter Logistic Model or Sigmoidal Dose-Response Model.

[3] = recombinant 5-LOX cell lysate, 20 μM AA, DHR123 fluorescence, several values in a cell = repeat determinations, read-out: IC50 (μM) values for in vitro lipoxygenase inhibition, 5-LOX
[4] = 100 nM recombinant 12-LOX, 20 μM AA, DHR123 fluorescence, several values in a cell = repeat determinations, read-out: IC50 (μM) values for in vitro lipoxygenase inhibition, 12-LOX

| IC50 [1, 3] | IC50 [2, 4] | Compound | IC50 [2] | IC50 [1] |
| --- | --- | --- | --- | --- |
| 0.14 µM | 0.07 µM | c1ccc(Nc2ccc(-c3cccc4c3NCC4)c(NCCn3cncn3)c2)cc1 [SS20308-0166-01, N^3-(2-(1H-1,2,4-triazol-1-yl)ethyl)-4-(indolin-7-yl)-N^1-phenylbenzene-1,3-diamine] |  |  |
| 0.23 µM | 0.36 µM | CN(C)CCCc1c(Nc2ccccc2)cccc1-c1cccc2c1NCC2 [SS20308-0172-01, 2-(3-(dimethylamino)propyl)-3-(indolin-7-yl)-N-phenylaniline] |  |  |
| 2.22 µM | 1.09 µM | c1ccc(Nc2cnc(-c3ccccc3)c(NCCn3cncn3)c2)cc1 [SS20308-0173-01, N^3-(2-(1H-1,2,4-triazol-1-yl)ethyl)-N^5,2-diphenylpyridine-3,5-diamine] |  |  |
| 0.32 µM | 0.26 µM | c1ccc(Nc2ccc(-c3ccccc3)c(NCCn3cncn3)n2)cc1 [SS20308-0175-01, N^2-(2-(1H-1,2,4-triazol-1-yl)ethyl)-N^6,3-diphenylpyridine-2,6-diamine] |  |  |
| 1.45 µM | 0.72 µM | Cn1cncc1-c1ccc(Nc2ccccc2)cc1NCCn1cncn1 [SS20308-0177-01, N^3-(2-(1H-1,2,4-triazol-1-yl)ethyl)-4-(1-methyl-1H-imidazol-5-yl)-N^1-phenylbenzene-1,3-diamine] |  |  |
|  |  | c1ccc(Nc2ccc(-c3ccccc3)c(NCCCn3cncn3)c2)cc1 [SS20308-0178-01, N^2-(3-(1H-1,2,4-triazol-1-yl)propyl)-N^4-phenylbiphenyl-2,4-diamine] | 0.09 µM and 0.11 µM and 0.07 µM and 0.14 µM | 150 nM and 210 nM (2×) and 90 nM |
| 0.16 µM | 0.16 µM | Fc1ccc(Nc2ccc(-c3ccc(Cl)cc3)c(NCCn3cncn3)c2)cc1 [SS20308-0181-01, N^2-(2-(1H-1,2,4-triazol-1-yl)ethyl)-4′-chloro-N^4-(4-fluorophenyl)biphenyl-2,4-diamine] |  |  |
| 0.16 µM | 0.18 µM | CN(C)CC1(CNc2cc(Nc3ccc(F)cc3)ccc2-c2ccccc2)COC1 [SS20308-0184-01, N^2-((3-((dimethylamino)methyl)oxetan-3-yl)methyl)-N^4-(4-fluorophenyl)biphenyl-2,4-diamine] |  |  |
| 0.17 µM and 0.28 µM | 0.08 µM and 0.15 µM | c1ccc(Nc2ccc(-c3ccn[nH]3)c(NCCn3cncn3)c2)cc1 [SS20308-0189-01, N^3-(2-(1H-1,2,4-triazol-1-yl)ethyl)-N^1-phenyl-4-(1H-pyrazol-5-yl)benzene-1,3-diamine] |  |  |
| 1.35 µM | 0.93 µM | Cn1nccc1-c1ccc(Nc2ccccc2)cc1NCCn1cncn1 [SS20308-0190-01, N^3-(2-(1H-1,2,4-triazol-1-yl)ethyl)-4-(1-methyl-1H-pyrazol-5-yl)-N^1-phenylbenzene-1,3-diamine] |  |  |
| 0.83 µM | 0.59 µM | Cc1noc(C)c1-c1ccc(Nc2ccccc2)cc1NCCn1cncn1 [SS20308-0192-01, N^3-(2-(1H-1,2,4-triazol-1-yl)ethyl)-4-(3,5-dimethylisoxazol-4-yl)-N^1-phenylbenzene-1,3-diamine] |  |  |
| 0.28 µM | 0.14 µM | c1ccc(Nc2ccc(-c3cccs3)c(NCCn3cncn3)c2)cc1 [SS20308-0193-01, N^3-(2-(1H-1,2,4-triazol-1-yl)ethyl)-N^1-phenyl-4-(thiophen-2-yl)benzene-1,3-diamine] |  |  |
| 0.19 µM | 0.13 µM | N#Cc1ccc(-c2ccc(Nc3ccccc3)cc2NCCn2cncn2)s1 [SS20308-0194-01, 5-(2-(2-(1H-1,2,4-triazol-1-yl)ethylamino)-4-(phenylamino)phenyl)thiophene-2-carbonitrile] |  |  |
| 0.76 µM | 0.36 µM | c1ccc(Nc2ccc(C3CCCO3)c(NCCn3cncn3)c2)cc1 (centres unmarked) [SS20308-0195-01, N^3-(2-(1H-1,2,4-triazol-1-yl)ethyl)-N^1-phenyl-4-(tetrahydrofuran-2-yl)benzene-1,3-diamine] |  |  |
| 0.25 µM | 0.32 µM | CN(C)CCCc1ccc(Nc2ccccc2Cl)c(Nc2ccccc2Cl)c1 [SS20308-0198-01, N^1,N^2-bis(2-chlorophenyl)-4-(3-(dimethylamino)propyl)benzene-1,2-diamine] |  |  |
| 0.68 µM | 0.51 µM | CN(C)CCCc1cc(Nc2ccc(F)cc2Cl)c(F)cc1Nc1ccc(F)cc1Cl [SS20308-0199-01, N^1,N^4-bis(2-chloro-4-fluorophenyl)-2-(3-(dimethylamino)propyl)-5-fluorobenzene-1,4-diamine] |  |  |
| 0.4 µM | 0.17 µM | c1ccc(-c2ccc(NC3CCCCC3)cc2NCCn2cncn2)cc1 [SS20308-0200-01, N^2-(2-(1H-1,2,4-triazol-1-yl)ethyl)-N^4-cyclohexylbiphenyl-2,4-diamine] |  |  |
| 0.19 µM | 0.05 µM | Fc1ccc(Nc2ccc3c(c2)N(CCn2cncn2)CC3)cc1 [SS20308-0201-01, 1-(2-(1H-1,2,4-triazol-1-yl)ethyl)-N-(4-fluorophenyl)indolin-6-amine] |  |  |
| 0.08 µM and 0.07 µM | 0.04 µM and 0.03 µM | Fc1ccc(CNc2ccc(NCCn3cncn3)c(-c3cccc4c3NCC4)c2)cc1 [SS20308-0211-01, N^1-(2-(1H-1,2,4-triazol-1-yl)ethyl)-N^4-(4-fluorobenzyl)-2-(indolin-7-yl)benzene-1,4-diamine] |  |  |
| 2.93 µM | 1.61 µM | c1ccc(CNc2cnc(NCCn3cncn3)c(-c3ccccc3)c2)cc1 [SS20308-0212-01, N^2-(2-(1H-1,2,4-triazol-1-yl)ethyl)-N^5-benzyl-3-phenylpyridine-2,5-diamine] |  |  |
| 0.61 µM | 0.08 µM | c1ccc(CNc2cc(-c3ccccc3)c(NCCn3cncn3)cn2)cc1 [SS20308-0213-01, N^5-(2-(1H-1,2,4-triazol-1-yl)ethyl)-N^2-benzyl-4-phenylpyridine-2,5-diamine] |  |  |
| 0.16 µM | 0.05 µM | c1ccc(CNc2ccc(NCCn3cncn3)c(-c3ccccc3)n2)cc1 [SS20308-0214-01, N^5-(2-(1H-1,2,4-triazol-1-yl)ethyl)-N^2-benzyl-6-phenylpyridine-2,5-diamine] |  |  |
| 0.07 µM and 0.09 µM | 0.04 µM and 0.03 µM | c1ccc(CNc2ccc(NCCn3cncn3)c(-c3ccncc3)c2)cc1 [SS20308-0215-01, N^1-(2-(1H-1,2,4-triazol-1-yl)ethyl)-N^4-benzyl-2-(pyridin-4-yl)benzene-1,4-diamine] |  |  |

| Compound | IC50 [1, 3] | IC50 [2, 4] | IC50 [2] | IC50 [1] |
| --- | --- | --- | --- | --- |
| Fc1ccc(Nc2ccc(NCCn3cncn3)c(-c3ccccc3)c2)c(Cl)c1 [SS20308-0165-01, N^2-(2-(1H-1,2,4-triazol-1-yl)ethyl)-N^5-(2-chloro-4-fluorophenyl)biphenyl-2,5-diamine] | 0.03 µM and 0.23 µM |  | 0.08 µM and 0.06 µM |  |
| Cn1cc(-c2ccc(Nc3ccccc3)cc2NCCn2cncn2)cn1 [SS20308-0191-01, N^3-(2-(1H-1,2,4-triazol-1-yl)ethyl)-4-(1-methyl-1H-pyrazol-4-yl)-N^1-phenylbenzene-1,3-diamine] | 4.18 µM |  | 1.96 µM |  |
